Experimental data reported in patent US20160084824A1, “DRUG DISCOVERY METHODS INVOLVING A PRECLNICAL, IN VITRO ISOLATED GASTROINTESTINAL EPITHELIAL STEM CELL-LIKE PROGENITOR CELL SYSTEM” (AlfaGene Bioscience, Inc., priority 2008, published 2016).

Columns and labels:
[1] = tested on: IL-8 production by HIPEC cells; experiment: IL-8 production by HIPECs, ELISA; assay type: cell-based, human; details: for IL-8 production: 5-ASA 1-10 μg/ml in culture medium
Procedure: Human gastrointestinal epithelial stem cell-like progenitor cells were isolated from a normal segment of the large intestine and a segment of the large intestine in a diseased state (such as a segment having ulcerative colitis). Epithelial monolayers were grown from these progenitor crypt cells on the appropriate BSME as described above. The effects of 5-ASA on spontaneous, LPS, or IFN-γ stimulated IL-8 production were assessed on HIPEC cells cultured in the presence or absence of either LPS or IFN-γ and 5-ASA (1-10 μg/ml). The level of IL-8 production was measured by ELISA.

[2] = cited from earlier work
[3] = tested on: HIPEC monolayer derived from small intestinal segment (A2J1)
[4] = tested on: HGISC-derived primary epithelial cell line A2J1; experiment: Cellular toxicity of SN-38, MTT viability assay, A2J1; assay type: cell-based, human; details: A2J1 cells; increasing amounts of SN-38
Procedure: (§1) Briefly, HGISC-derived primary epithelial cell lines (A2J1 and SOJ2) and the malignant colonic adenocarcinoma cell line (HT29) were cultured, as described above in Examples 1A and 1B in medium containing different cytotoxic levels of the irinotecan metabolite 7-ethyl-10-hydroxy-20(S)-camptothecin (SN-38). […] Each cell culture was assessed for viability utilizing the MIT assay.
(§2) Yellow MTT (3-(4,5-Dimethylthiazol-2-yl)-2,5-diphenyltetrazolium bromide, a tetrazole) is reduced to purple formazan in living cells. A solubilization solution (usually either dimethyl sulfoxide, an acidified ethanol solution, or a solution of the detergent sodium dodecyl sulfate in diluted hydrochloric acid) is added to dissolve the insoluble purple formazan product into a colored solution. The absorbance of this colored solution may be quantified by measuring at a certain wavelength (usually between 500 and 600 nm) using a spectrophotometer. The absorption maximum is dependent on the solvent employed. The MTT assay may be used to determine cytotoxicity of materials, since those materials that result in cell toxicity, and therefore metabolic dysfunction, yield decreased performance in the assay.

[5] = tested on: HGISC-derived primary epithelial cell line SOJ2; experiment: Cellular toxicity of SN-38, MTT viability assay, SOJ2; assay type: cell-based, human; details: SOJ2 cells; increasing amounts of SN-38
Procedure: as §1, §2

[6] = tested on: malignant colonic adenocarcinoma cell line (HT29); experiment: Cellular toxicity of SN-38, MTT viability assay, HT29; assay type: cell-based, human; details: HT29 cells; increasing amounts of SN-38
Procedure: as §1, §2

## Nc1ccc(O)c(C(=O)O)c1 [5-ASA, 5-aminosalicyclic acid]
[1]; IBS HIPECs
  IL-8 production: suppressed
[1]; normal HIPECs
  IL-8 production: suppressed

## IFN-γ: cytokine produced predominantly by natural killer T cells as part of the innate immune response
[1]; HIPECs from normal controls and from patients with IBS
  effect of stimulation on spontaneous IL-8 production: moderately enhanced

## CC(C)NCC(O)COc1cccc2ccccc12 (stereo not drawn) [propranolol]
[2]; administered in vivo
  absorption: absorbed rapidly and completely
[2]; due to extensive first-pass metabolism
  bioavailability: variable bioavailability
[3]
  permeability through small intestine (A2J1) compared with large intestine (5A): greater than through large intestine (5A)

## CCc1c2c(nc3ccc(O)cc13)-c1cc3c(c(=O)n1C2)COC(=O)[C@]3(O)CC [SN-38, 7-ethyl-10-hydroxy-20(S)-camptothecin]
[4]
  percent viability (MTT): 0%
[5]
  percent viability (MTT): above 50%
[6]
  percent viability (MTT): unaffected
